The values that follow come from ChEMBL document CHEMBL1201862, “PubChem BioAssay data set” (2004).

The term EC50 denotes the concentration giving half of the maximal effect. In general, AC50 refers to the concentration giving half of the maximal activity seen.

Experiment [1] addresses T1, Short transient receptor potential channel 4 (Mus musculus, UniProt Q9QUQ5).
T1 sequence (Q9QUQ5 whole entry): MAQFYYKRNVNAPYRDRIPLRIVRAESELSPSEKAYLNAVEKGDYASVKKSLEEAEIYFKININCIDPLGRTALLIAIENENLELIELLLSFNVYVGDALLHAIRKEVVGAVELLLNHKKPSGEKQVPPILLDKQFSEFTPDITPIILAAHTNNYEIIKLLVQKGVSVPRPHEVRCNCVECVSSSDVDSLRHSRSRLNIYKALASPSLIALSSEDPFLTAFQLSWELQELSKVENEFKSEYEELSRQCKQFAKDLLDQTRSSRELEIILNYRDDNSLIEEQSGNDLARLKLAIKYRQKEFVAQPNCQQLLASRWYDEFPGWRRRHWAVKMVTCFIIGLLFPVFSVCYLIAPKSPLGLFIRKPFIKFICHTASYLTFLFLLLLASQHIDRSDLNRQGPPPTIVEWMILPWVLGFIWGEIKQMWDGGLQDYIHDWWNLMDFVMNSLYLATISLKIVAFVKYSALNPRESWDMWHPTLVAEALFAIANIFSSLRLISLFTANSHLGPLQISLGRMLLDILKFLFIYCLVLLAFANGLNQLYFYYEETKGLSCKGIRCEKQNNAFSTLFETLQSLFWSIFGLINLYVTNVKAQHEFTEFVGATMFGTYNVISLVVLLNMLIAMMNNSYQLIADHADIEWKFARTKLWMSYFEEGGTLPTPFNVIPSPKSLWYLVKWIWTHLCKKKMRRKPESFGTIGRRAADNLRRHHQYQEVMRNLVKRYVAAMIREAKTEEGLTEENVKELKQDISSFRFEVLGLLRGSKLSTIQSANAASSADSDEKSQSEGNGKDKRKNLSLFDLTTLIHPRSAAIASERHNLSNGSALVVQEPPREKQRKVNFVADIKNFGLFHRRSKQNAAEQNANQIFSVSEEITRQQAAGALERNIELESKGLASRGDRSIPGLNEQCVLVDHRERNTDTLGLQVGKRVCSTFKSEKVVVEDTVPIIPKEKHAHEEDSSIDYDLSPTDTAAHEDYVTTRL
Briefly: block of DAMGO-driven TRPC4 calcium entry – cell-based, HEK293 TRPC4/mu-opioid, Fluo-4 calcium, dose response (AID 434942).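 Further: potency of inhibitors blocking the TRPC4 calcium response.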 Type of experiment: functional.

The target of experiment [2] is T2, Microphthalmia-associated transcription factor (Homo sapiens, UniProt O75030).
T2 sequence (O75030 whole entry): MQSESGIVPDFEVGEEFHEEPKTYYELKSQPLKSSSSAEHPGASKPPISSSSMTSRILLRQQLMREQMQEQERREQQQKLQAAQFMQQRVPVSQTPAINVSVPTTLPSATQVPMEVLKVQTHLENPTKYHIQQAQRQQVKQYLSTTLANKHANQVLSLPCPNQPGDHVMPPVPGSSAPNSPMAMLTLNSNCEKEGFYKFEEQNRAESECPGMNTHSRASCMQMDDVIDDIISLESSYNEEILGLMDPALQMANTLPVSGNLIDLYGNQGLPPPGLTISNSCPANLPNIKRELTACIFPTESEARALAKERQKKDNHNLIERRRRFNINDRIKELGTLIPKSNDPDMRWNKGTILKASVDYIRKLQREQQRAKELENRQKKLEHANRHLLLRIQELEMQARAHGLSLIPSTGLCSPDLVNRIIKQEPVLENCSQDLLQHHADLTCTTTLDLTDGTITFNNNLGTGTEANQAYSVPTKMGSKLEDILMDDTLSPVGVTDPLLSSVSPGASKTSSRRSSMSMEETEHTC
Briefly: reducers of TRPM1 reporter luminescence, concentration series – cell-based, SK-MEL-5, cherry-picked, set 3, MITF inhibitor project, dose response (AID 493073).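 Further: SK-MEL-5 melanoma cells with luciferase driven by the MITF target TRPM1 promoter.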 Type of experiment: functional.

For experiment [3], the target named is Heat shock protein HSP 90-alpha (Homo sapiens, UniProt P07900). Type of experiment: functional, organism-based.
A short description of experiment [4]: NIH-3T3 fibroblast cytotoxicity, dose response, cytotoxicity control, cell-based, fluorescence, Alamar Blue, secondary assay (AID 2327).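 Further: NIH-3T3 mouse fibroblasts cultured with fluconazole at 8 µg/mL.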 It counts as functional.
The nature of experiment [5]: luciferase reporter signal suppression in cells – H4 neuroglioma cells, luminescence, dose response (AID 1990). Type of experiment: functional, cell-based. A general note: In a reporter assay the amount or activity of a reporter protein is the signal.
Experiment [6] is described as follows: cells. Type of experiment: functional, cell-based.
Experiment [7] is described as follows: Luminescence Cell-Based Dose Response HTS to Identify Inhibitors of 5'UTR Stem-Loop Driven Prion Protein mRNA Translation in H4 Neuroglioblastoma Cells. [Related pubchem assays: 1827 (Project Summary), 1813 (Primary HTS)]. Type of experiment: functional.
Experiment [8] in a line: alpha-synuclein stem-loop luciferase translation blockers – H4 neuroglioma cells, luminescence, confirmation (AID 1988). It counts as functional, cell-based.
Experiment [9] is described as follows: fluconazole-exposed Candida albicans growth modulators – fluorescence, retest, confirmation (AID 2467). Type of experiment: functional, cell-based.
Experiment [10] is described as follows: cells. It counts as functional, cell-based. This is another data set of the same source.
For a further experiment, the target named is Nonstructural protein 1 (Influenza A virus, UniProt Q194T2). It counts as functional, Influenza A virus (A/California/07/2009(H1N1)).
Chain of Nonstructural protein 1 (Q194T2 whole entry): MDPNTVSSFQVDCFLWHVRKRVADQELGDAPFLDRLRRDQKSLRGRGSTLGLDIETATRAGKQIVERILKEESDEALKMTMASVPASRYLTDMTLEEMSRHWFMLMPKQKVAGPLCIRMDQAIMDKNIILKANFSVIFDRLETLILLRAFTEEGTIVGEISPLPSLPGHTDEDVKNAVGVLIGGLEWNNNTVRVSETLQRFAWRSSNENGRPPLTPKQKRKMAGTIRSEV
For another experiment, the system named is INS1. Description: INS-1E survival protection against cytokine death – cell-based, luminescence, retest, dose response (AID 449756).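 Further: cell death triggered by IL-1 beta plus TNF-alpha plus IFN-gamma mixture; protective hits raise ATP signal compared with cytokine alone wells.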 Type of experiment: functional. The following applies: Rattus norvegicus.
A short description of experiment [11]: reduction of Shn3 3'UTR-driven luciferase in osteoblasts – cell-based, Clone20 osteoblasts, firefly luciferase, cherry-picked, dose response (AID 624132).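 Further: firefly luciferase luminescence from reporter carrying the Shn3 3'UTR in osteoblasts.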 Type of experiment: functional.
Experiment [12] can be described thus: loss of viability in HepG2 cells – cell-based, CellTiter-Glo, cherry-picked, cytotoxicity control for Shn3 inhibitor project, dose response (AID 624134). It counts as functional.
The nature of experiment [13]: non-specific 3'UTR reporter inhibition in Clone20-Shn3RL – cell-based, Renilla luciferase, cherry-picked, counter-screen for Shn3 inhibitor project, dose response (AID 624133). Type of experiment: functional. (The purpose of a counterscreen is to sort out artefacts and off-target activity.)
A short description of experiment [14]: intracellular Trypanosoma cruzi inhibitors in host cells – cell-based, plate reader, cherry-pick samples, set 3, dose response (AID 651818).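 Further: compounds incubated with infected cells for about four days.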 It counts as functional.
A further experiment deals with Genome polyprotein (dengue virus type 2, UniProt P29990). Description: flavivirus cap methylation enzyme inhibition – biochemical, confirmation dose response, primary screen (AID 588689). Type of experiment: functional.
Chain of Genome polyprotein (P29990 2492-3391 limits assumed): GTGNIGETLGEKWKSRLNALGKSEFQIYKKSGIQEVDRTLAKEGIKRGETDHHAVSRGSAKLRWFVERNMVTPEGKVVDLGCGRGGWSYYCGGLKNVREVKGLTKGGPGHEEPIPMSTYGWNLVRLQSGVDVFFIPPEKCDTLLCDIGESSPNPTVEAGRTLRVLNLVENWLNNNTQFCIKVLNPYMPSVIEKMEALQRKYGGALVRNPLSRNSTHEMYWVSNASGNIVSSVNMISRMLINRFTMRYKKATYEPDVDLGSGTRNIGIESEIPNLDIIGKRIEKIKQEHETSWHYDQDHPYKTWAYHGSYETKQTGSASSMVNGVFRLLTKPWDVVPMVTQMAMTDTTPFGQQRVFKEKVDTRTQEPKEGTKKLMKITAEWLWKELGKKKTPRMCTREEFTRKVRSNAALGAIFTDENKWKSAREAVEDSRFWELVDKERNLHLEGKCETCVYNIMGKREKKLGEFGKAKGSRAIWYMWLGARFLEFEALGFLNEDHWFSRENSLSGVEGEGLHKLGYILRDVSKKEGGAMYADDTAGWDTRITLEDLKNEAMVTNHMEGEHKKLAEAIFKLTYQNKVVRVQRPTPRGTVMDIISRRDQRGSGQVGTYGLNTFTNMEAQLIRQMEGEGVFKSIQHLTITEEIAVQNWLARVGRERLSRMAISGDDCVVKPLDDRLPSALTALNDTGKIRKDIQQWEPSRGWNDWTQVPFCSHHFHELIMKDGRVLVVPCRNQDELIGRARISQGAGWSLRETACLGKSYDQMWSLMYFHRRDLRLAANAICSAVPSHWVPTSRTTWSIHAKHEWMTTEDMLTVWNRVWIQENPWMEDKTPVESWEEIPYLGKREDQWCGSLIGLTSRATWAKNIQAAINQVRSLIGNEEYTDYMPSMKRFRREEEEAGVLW
In experiment [15] the target is T3, Polyadenylate-binding protein 1 (Homo sapiens, UniProt P11940). Description: MLLE binding blockers, Cy5 peptide tracer – biochemical, fluorescence polarization, Cy5-PAM2 peptide, secondary, miRNA deadenylation inhibitor project, dose response (AID 602260). Type of experiment: functional. The conditions noted are these: read-out: IC50_Mean. (In fluorescence polarisation assays a small probe gives low polarisation when free and higher when bound to something large.)
T3 sequence (P11940 whole entry): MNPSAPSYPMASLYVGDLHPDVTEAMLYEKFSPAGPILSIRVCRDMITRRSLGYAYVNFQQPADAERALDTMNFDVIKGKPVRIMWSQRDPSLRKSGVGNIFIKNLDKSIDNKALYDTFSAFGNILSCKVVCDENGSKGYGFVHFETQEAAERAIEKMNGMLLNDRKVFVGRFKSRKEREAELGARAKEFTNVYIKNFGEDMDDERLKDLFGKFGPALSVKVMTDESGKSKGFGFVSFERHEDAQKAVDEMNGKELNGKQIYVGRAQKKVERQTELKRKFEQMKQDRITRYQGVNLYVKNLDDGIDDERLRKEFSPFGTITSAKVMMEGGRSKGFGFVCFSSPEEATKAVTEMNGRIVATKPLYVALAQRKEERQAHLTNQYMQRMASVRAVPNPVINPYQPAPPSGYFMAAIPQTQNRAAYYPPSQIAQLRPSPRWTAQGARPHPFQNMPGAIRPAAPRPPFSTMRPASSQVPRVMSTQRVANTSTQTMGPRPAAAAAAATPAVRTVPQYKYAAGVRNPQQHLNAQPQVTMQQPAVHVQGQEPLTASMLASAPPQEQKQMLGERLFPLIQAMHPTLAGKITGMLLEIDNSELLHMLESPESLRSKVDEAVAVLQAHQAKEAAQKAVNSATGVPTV

The target in experiment [16] is T3, Polyadenylate-binding protein 1. Briefly: MLLE domain peptide-binding blockers, IC50 – biochemical, fluorescence polarization, FITC-PAM2 peptide, dose response (AID 602259). The conditions noted are these: read-out: IC50_Mean. It counts as functional.
Experiment [17] is described as follows: blockers of HIV-1 envelope-mediated cell-cell fusion – cherry-pick, dose response (AID 652057). It counts as functional, cell-based.
Experiment [18] in a line: HIV-1 AD8 envelope cell-cell fusion blockers – cherry-pick, dose response (AID 652062).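 Further: luciferase signal from cell-cell fusion driven by HIV-1 clade B AD8 Env; potency is for inhibitors of fusion seen as a drop in luminescence.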 Type of experiment: functional, cell-based.

SMILES strings stand for the structures. Active and inactive are the calls of the source. Bounds are passed on as bounds.

Consider `CCC1C=C(c2ccccc2)C=CN=C1N(CC)CC` (centres undefined), for which the EC50 in experiment [1] is 4.22 µM (active). With `CC(C)c1nc(CNC(=O)CC2C(=O)NCCN2Cc2ccc(F)cc2Cl)cs1` (centres undefined), the EC50 in experiment [1] was 1.88 µM (active).

In the case of `CCCCNC(=O)Nc1ccc(C2SCCS2)cc1`, the AC50 in experiment [2] is 35.3 µM (active).

Take `O=C1c2cc(Cl)ccc2-c2c(O)cc(Cl)cc21`: the AC50 in [3] was 2.08 µM (active).

As for `CCOc1ccc(Cl)cc1/C=N/O`, in experiment [1], the EC50 was 4.22 µM (active). The same measure, in the same setting: as for `CC1CCc2c(sc(/N=C/N(C)C)c2C#N)C1` (centres undefined), the figure is 2.99 µM (active).

`O=C1[C@@H]2C(c3cccnc3)=NO[C@@H]2C(=O)N1c1ccc(Br)cc1`: the AC50 in experiment [3] is 5.67 µM (active). For the compound `Oc1c(C(Nc2cccc(C(F)(F)F)c2)c2ccncc2)ccc2cccnc12` (centres undefined), the EC50 was 18.3 µM (active) in experiment [4]; 11.9 µM (active) in experiment [5]; 9.32 µM (active) in “cells [6]”; 15.3 µM (active) in experiment [7]; 9.42 µM (active) in [8]; 3.42 µM (active) in [9]. The EC50 in the experiment “cells [10]” is > 350 µM (not active). Further, the IC50 on Nonstructural protein 1 was 8.76 µM (active). The AC50 in experiment [3] is 6.48 µM (active); in the experiment on INS1 it was 3.82 µM (active); in experiment [11], 5.8 µM (active); in [12], 7.21 µM (active); in [13], 6.9 µM (active). Regarding `C[C@@H]1CN([C@@H](C)CO)C(=O)c2cc(NS(=O)(=O)c3ccc(Cl)cc3)ccc2O[C@H]1CN(C)Cc1ccc(Cl)c(Cl)c1`, the AC50 in [14] is 3.37 µM (active). For the compound `C[C@H](CO)N1C[C@H](C)[C@@H](CN(C)Cc2ccc(Oc3ccccc3)cc2)Oc2c(NC(=O)Nc3ccccc3)cccc2C1=O`, the AC50 in [14] is 2.17 µM (active). As to `N#Cc1c(N)sc(=S)c2c1CCCC2`, the IC50 at Genome polyprotein is 90.8 µM (active); in [15], > 66 µM (inactive); in experiment [16] it was 57.4 µM (inactive).

In the case of `COc1cccc(NC(=O)CCC(=O)N2CC(C)Oc3ccc(C)cc32)c1` (centres undefined), the EC50 in [1] was 0.531 µM (active).

For the compound `COc1cccc(/C=C2/C(=O)NN(c3ccc(F)cc3)C2=O)c1`, the IC50 on Genome polyprotein was 38.1 µM (active). Consider `C[C@@H]1CN([C@H](C)CO)C(=O)c2cccc(NC(=O)Nc3ccc(C(F)(F)F)cc3)c2O[C@@H]1CN(C)Cc1ccc2c(c1)OCO2`, for which the AC50 in experiment [14] is 2.54 µM (active).

Consider `C[C@H]1CN([C@@H](C)CO)C(=O)Cc2cc(NC(=O)Nc3ccccc3)ccc2O[C@H]1CN(C)Cc1ccc(C(=O)Nc2ccccc2N)cc1`, for which the AC50 in experiment [14] was 2.93 µM (active). In the case of `C[C@H]1CN([C@@H](C)CO)C(=O)c2cc(NC(=O)Nc3cccc4ccccc34)ccc2O[C@@H]1CN(C)Cc1ccc(Cl)c(Cl)c1`, in experiment [14], the AC50 was 3.43 µM (active). As for `C[C@H](CO)N1C[C@H](C)[C@H](CN(C)C(=O)Nc2ccc(C(F)(F)F)cc2)Oc2ccc(NC(=O)Nc3ccc(C(F)(F)F)cc3)cc2C1=O`, the AC50 in experiment [14] is 4.23 µM (active).

With `Cc1cc(C(=O)N/N=C\c2cc(C(C)(C)C)ccc2O)[nH]n1`, the EC50 in [1] is 6.68 µM (active). For the compound `C[C@H](CO)N1C[C@H](C)[C@H](CN(C)C(=O)C2CC2)OCc2ccccc2-c2c(n(C)c3ccccc23)C1=O`, the AC50 is 0.426 µM (active) in [17] and 0.836 µM (active) in experiment [18].
